The values that follow come from US20020026053A1, “Novel 3-(substituted) -2- indolinones compounds and use thereof as inhibitors of protein kinase activity” (priority 1997, published 2002).

This assay deals with FLK-1 receptor. Description: FLK-1 Assay (cellular/catalytic ELISA, VEGF-stimulated phosphotyrosine). Format: cell-based. Also on record: concentration or dose not given beside the values. The following applies: protocol P.110. The method, boiled down: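 Receptor phosphotyrosine ELISA: Flk-1-expressing NIH3T3 C7#3 cells, starved overnight in 0.1% FBS medium, received compound (1:200 final dilution, 0.5% DMSO) for 2 h at 37 °C, then VEGF. Anti-FLK-1-captured receptor was probed with anti-phosphotyrosine UB40 and peroxidase/ABTS read-out, relative to cells without compound.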

Regarding `O=C1Nc2ccc(CCCl)cc2C1=Cc1cccc(O)c1O` [10738/G06], the “Flk Kinase % Inhibition (P.110)” value is given as −52.4%.

For the compound `O=C1Nc2ccc(CCCl)cc2C1=Cc1cc(O)cc(O)c1` [10738/G07], the “Flk Kinase % Inhibition (P.110)” value was −19.3%.

As to `O=C1Nc2ccc(CCCl)cc2C1=Cc1ccc(Cl)c(Cl)c1` [10738/G08], the “Flk Kinase % Inhibition (P.110)” value is −15.2%.

As for `COc1ccccc1C=C1C(=O)Nc2ccc(CCCl)cc21` [10738/G09], the “Flk Kinase % Inhibition (P.110)” value is 4.1%.

As for `CC(C)c1ccc(C=C2C(=O)Nc3ccc(CCCl)cc32)cc1` [10738/G10], the “Flk Kinase % Inhibition (P.110)” value is on record as −17.0%.

Regarding `CCCOc1ccc(C=C2C(=O)Nc3ccc(CCCl)cc32)cc1` [10738/G11], the “Flk Kinase % Inhibition (P.110)” value is −8.1%.

For the compound `Cc1ccc(Oc2cccc(C=C3C(=O)Nc4c(Br)cc(Br)c(C)c43)c2)cc1` [10738/H02], the “Flk Kinase % Inhibition (P.110)” value is listed as −14.6%.

As to `Cc1c(Br)cc(Br)c2c1C(=Cc1cccc(Oc3ccc(Cl)c(Cl)c3)c1)C(=O)N2` [10738/H03], the “Flk Kinase % Inhibition (P.110)” value is on record as −6.2%.

For `COc1ccc(C=C2C(=O)Nc3c(Br)cc(Br)c(C)c32)cc1O` [10738/H04], the “Flk Kinase % Inhibition (P.110)” value is −17.9%.

Turning to `Cc1c(Br)cc(Br)c2c1C(=Cc1cc(O)ccc1[N+](=O)[O-])C(=O)N2` [10738/H05], the “Flk Kinase % Inhibition (P.110)” value is −17.9%.

Take `Cc1c(Br)cc(Br)c2c1C(=Cc1cccc(O)c1O)C(=O)N2` [10738/H06]: the “Flk Kinase % Inhibition (P.110)” value was −44.8%.
